Measured values reported in US9050267B2 (Novartis AG, priority 2011, dated 2015).
Where a name gives a salt, the structure may show the parent alone. Read-outs that look alike come from different tables or passages of the source. Peptide text beside a SMILES is read from it.

How the values were obtained:
[1] = Aerodynamic particle size distribution, NEXT GENERATION IMPACTOR, passive blister dry powder inhaler; type: physicochemical; settings: Lot A2; for % deviation in FPFd2Q<500: going from 35 L/min to 47 L/min
Method: The aerodynamic particle size distribution (aPSD) of the resulting aerosol dose was assessed using a NEXT GENERATION IMPACTOR™ at flow rates of 35 LPM and 47 LPM, corresponding to inhaler pressure drops of 4 kPa and 6 kPa, respectively. Note for present purposes flow rate and pressure drop are related via the inhaler flow resistance, and are used interchangeably. The mass distribution of each active ingredient on the cascade impactor stages was determined using an HPLC assay.
Total lung deposition as a function of variations in flow rate (O) is dependent not only on the aerodynamic particle size distribution of the aerosol, but also on the variations in inertial impaction which occur with changes in flow rate. In other words, for a given aPSD, the lung dose is expected to decrease as the flow rate increases. In order to achieve flow rate independence in-vivo, it is important to achieve a balance of these two opposing factors. A simple way to account for the dependence of lung dose on both variables, i.e. aerodynamic particle size cutoff diameter, d, and flow rate, Q, is to express the aPSD in terms of a fine particle fraction cut-off which incorporates both variables. Assuming oropharyngeal losses are determined largely by inertial impaction, the cut-off for lung dose may be expressed in terms of the impaction parameter, d^2Q. The selected cut-off d^2Q of 500 μm^2-L/min was chosen to represent a range of inhalers, based on the fact that the best correlate of lung deposition is found for the fraction of particles with an aerodynamic size of less than 3 μm, and a medium resistance inhaler is typically tested at a flow rate of about 60 L/min.

[2] = TURBUHALER, cited from earlier work
β2-adrenoceptor = β2-adrenoceptor (Homo sapiens, UniProt P07550); settings: cited from earlier work
Sequence of β2-adrenoceptor (P07550 whole entry, species assumed): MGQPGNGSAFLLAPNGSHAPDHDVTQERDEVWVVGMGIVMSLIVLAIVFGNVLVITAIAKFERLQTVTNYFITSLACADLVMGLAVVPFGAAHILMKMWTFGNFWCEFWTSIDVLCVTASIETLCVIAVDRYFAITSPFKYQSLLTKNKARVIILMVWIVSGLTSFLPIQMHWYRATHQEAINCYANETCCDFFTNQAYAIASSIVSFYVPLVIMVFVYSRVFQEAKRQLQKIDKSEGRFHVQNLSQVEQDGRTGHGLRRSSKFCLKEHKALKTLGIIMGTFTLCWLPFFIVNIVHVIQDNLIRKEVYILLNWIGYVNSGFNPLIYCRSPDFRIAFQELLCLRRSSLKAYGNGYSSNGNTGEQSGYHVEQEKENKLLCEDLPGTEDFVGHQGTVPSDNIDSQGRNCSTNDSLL

[3] = cited from earlier work
[4] = pressure drop 4 kPa, flow rate 35 L/min
[5] = pressure drop 6 kPa, flow rate 47 L/min

C[N+]1(C)CCC(OC(=O)C(O)(c2ccccc2)C2CCCC2)C1.[Br-] (centres unmarked) [Glycopyrrolate, 3-[(cyclopentyl-hydroxyphenyl-acetyl)oxy]-1,1-dimethylpyrrolidinium bromide]
% deviation in FPFd2Q<500 [1]: 8.1%

CCc1cc2c(cc1CC)CC(NC[C@H](O)c1ccc(O)c3[nH]c(=O)ccc13)C2 [Indacaterol maleate, (R)-5-[2-(5,6-diethyl-indan-2-ylamino)-1-hydroxyethyl]-8-hydroxy-1H-quinolin-2-one]
FPF<3.3 μm [1, 4]: 57 % DD | MMAD [1, 4]: 2.8 μm | d^2Q < 500 [1, 4]: 65 | FPF<3.3 μm [1, 5]: 69 % DD | MMAD [1, 5]: 2.3 μm | d^2Q < 500 [1, 5]: 68

CCCC1O[C@@H]2C[C@H]3[C@@H]4CCC5=CC(=O)C=C[C@]5(C)[C@H]4[C@@H](O)C[C@]3(C)[C@]2(C(=O)CO)O1 (some centres unmarked) [budesonide]
total lung deposition ([2]; breathe more slowly (comfortable inhalation manoeuvre)): 15% | total lung deposition ([2]; breathe quickly (forceful inhalation manoeuvre)): 28%

CCc1cc2c(cc1CC)CC(NC[C@H](O)c1ccc(O)c3[nH]c(=O)ccc13)C2 [indacaterol, (R)-5-[2-(5,6-diethyl-indan-2-ylamino)-1-hydroxyethyl]-8-hydroxy-1H-quinolin-2-one]
duration of action (β2-adrenoceptor): over 24 hours | onset of action (β2-adrenoceptor): about 10 minutes | % deviation in FPFd2Q<500 [1]: 4.6%

O=C([O-])CC(O)(CC(=O)[O-])C(=O)[O-].[Na+].[Na+].[Na+] [sodium citrate]
Dry Tg ([3]; pH > 7): 170 (pH > 7) ° C.

CC(C)C[C@H](NC(=O)[C@H](CC(C)C)NC(=O)[C@@H](N)CC(C)C)C(=O)O [trileucine] (H-Leu-Leu-Leu-OH)
Dry Tg ([3]; pH dependent): 70 to 100 °C
